Reference: patent US12258547B2, “Cell culture plate, method for preparing thereof and method for detecting a substance” (UPM-Kymmene Corporation, priority 2019, dated 2025)
Structures can show the parent of a compound that is named as a salt.

Assays:
[1] = Leakage Test 2: 3D-printed 1.5% GrowDex barriers, BJ cells outside, chemical dosed inside, WST-1; type: cell-based, Human; conditions: human; for viability at 24 h, 100 μg/ml: 100 μg/ml dosed into other side of barrier; for viability at 24 h, 100 μg/ml / viability at 24 h, 200 μg/ml: read-out: Viability % of Control; for viability at 24 h, 200 μg/ml: 200 μg/ml dosed into other side of barrier
Experimental: (§1) For this purpose, we • decreased the cell number from the 40 000 cells/well that was used in Test 1, to 20 000 cells/well • increased the Amitriptyline concentrations from 10 and 20 μg/ml used in Test 1 to 100 and 200 μg/ml, and the SDS concentrations from 40 and 80 μg/ml used in Test 1 to 100 and 200 μg/ml. [By decreasing cell number and increasing chemical concentration it was aimed to increase the sensitivity of the test, and expect to obtain more (measurable/visible) impacts on cells]. • included following blanks: • 1.5% GrowDex barrier on poly-D-lysine coated wells in BJ cell culture medium and WST-1, but no cells • 1.5% GrowDex barrier in MEM, no coating, no cells • 1.5% GrowDex barrier in PBS, no coating, no cells • In addition, the number of measurements/well in the multipoint absorbance reading was increased from 81 to 225 reads/well in order to get denser coverage of the well.
(§2) 1.5% GrowDex barriers consisting of four layers, were printed on a 12-well plate. For more details on 3D-printing, see Appendix 1. After construction, the barriers were left to dry for 1 hr at room temperature, after which they were covered with MEM. The plate was sealed with parafilm and stored at 4° C. until used.
(§3) The next day after construction of the barriers, BJ fibroblasts were seeded: 400 μl BJ suspension (50 000 cells/ml) was seeded outside of the barriers (→altogether 20 000 BJ cells), and 100 μl BJ cell culture medium was pipetted inside of the barriers. The cells were let to grow for 24 hrs before exposure.
(§4) 2.0 mg/ml stocks were prepared from both Amitriptyline and SDS in BJ cell culture medium with 5% FBS. The stocks were first diluted 1:10 to obtain […] chemical dilution. And the 200 μg/ml chemical dilution was further diluted 1:2 to obtain 100 μg/ml chemical dilution. These dilutions, i.e. 200 and 100 μg/ml were used in the exposure.
(§5) The medium was removed carefully from both inside and outside of the barriers. 400 μl BJ cell culture medium with 5% FBS was pipetted outside of the barrier (where the cells had been seeded on previous day). 100 μl chemical dilution (SDS or Amitriptyline) was pipetted inside of the barriers. The exposure time was 24 hrs.
(§6) After 24 hrs chemical exposure, 10 μl WST-1 reagent was pipetted inside of the barriers, and 100 μl outside of the barriers. The plate was incubated for 30 min, 1.5 hrs and 2.0 hrs before absorbance measurement at 450 nm. The absorbance was measured using multipoint measurement with 225 reads/well.
(§7) In an attempt to quantify the cell viability after different treatments, the mean±STDEV absorbances were calculated using two rows of absorbances that were measured next to the outer edges of the wells. This area was assumed to be outside of the barrier.

[2] = tested on: BJ fibroblasts; experiment: as above; type: cell-based, Human; conditions: 24 hrs, 450 nm
Experimental: as §1, §2, §3, §4, §5, §6, §7

[3] = tested on: BJ cells; experiment: Leakage Test 1: 3D-printed barriers, BJ cells outside, chemical dosed inside, WST-1 and microscopy; type: cell-based, Human; conditions: SDS 80 and 40 μg/ml, amitriptyline 20 and 10 μg/ml dosed inside barrier, 24 hrs
Experimental: It was investigated whether the 3D-printed GrowDex barriers are suitable for their intended use, i.e. to prevent the movement of cells across the barrier but allow the passage of chemicals. In order to test this, BJ cells were seeded outside of the barrier, and chemicals (SDS and Amitriptyline hydrochloride), which are known to be toxic to BJ cells, were applied inside of the barrier. After 24 hrs incubation it was evaluated microscopically whether cells had stayed outside of the barriers and whether the chemical dosed in the middle of the barrier killed the cells outside of the barrier. For quantification of cell viability, WST-1 assay was used. WST-1 assay was selected as it was used previously successfully with manually constructed barriers.
12-Well Plates: 400 μl BJ suspension (100 000 cells/ml) was seeded outside of the barriers (→altogether 40 000 BJ cells), and 100 μl BJ cell culture medium was pipetted inside of the barriers.
24-Well Plates: 200 μl of BJ suspension (100 000 cells/ml) was seeded outside of the barriers (→altogether 20 000 BJ cells), and 50 μl BJ cell culture medium was pipetted inside of the barriers. […]
The plates were incubated for 2.5 hrs before absorbance measurement at 450 nm. The absorbance was measured using multipoint measurement with 49 reads/well in 24-well plates and 81 reads/well in 12-well plates.

[4] = tested on: BJ cells; experiment: Previous cytotoxicity data on BJ cells obtained without barriers; type: cell-based; conditions: Homo sapiens, dosed without barriers
Description: The aim was to detect dose-dependent effect by using a concentration that was expected to kill about half of the cells and a concentration two times bigger than that.

[5] = tested on: SH-SY5Y cells; experiment: SDS permeability (indirect): cell viability observed microscopically on both sides of barrier; type: cell-based, Human; conditions: 0.4 mg/ml SDS dosed left
Experimental: Barrier permeability to chemicals was tested by visual inspection using 0.2% Trypan blue, by quantitative measurement using 1 mg/ml fluorescein solution, and by indirect method using sodium dodecyl sulfate (SDS), which is a toxic compound. SDS is a detergent that is known to be toxic to all cell types. […] Circular shaped barriers were prepared in 6-well plates, and straight wall shaped barriers in 24-well plates. SH-SY5Y cells were seeded to the 24-well plate in both sides of the barriers in their normal cell culture medium at the density of 325 000 cells/50 μl. HepG2 cells were seeded to the 6-well plate both inside the barrier circles and outside of them at the density of 107 500 cells/50 μl. Next day 0.4 mg/ml SDS stock was prepared and the cells were exposed to it: SH-SY5Y cells growing on the 24 well plate: 100 μl of 0.4 mg/ml SDS solution was pipetted to the left side of the barrier. 100 μl medium without SDS was pipetted to the right side of the barrier. […] The cell viability was observed microscopically.

[6] = tested on: HepG2 cells; experiment: SDS permeability (indirect): cell viability observed microscopically inside and outside barrier circle; type: cell-based, Human; conditions: 0.4 mg/ml SDS dosed inside circle
Experimental: Barrier permeability to chemicals was tested by visual inspection using 0.2% Trypan blue, by quantitative measurement using 1 mg/ml fluorescein solution, and by indirect method using sodium dodecyl sulfate (SDS), which is a toxic compound. SDS is a detergent that is known to be toxic to all cell types. […] Circular shaped barriers were prepared in 6-well plates, and straight wall shaped barriers in 24-well plates. SH-SY5Y cells were seeded to the 24-well plate in both sides of the barriers in their normal cell culture medium at the density of 325 000 cells/50 μl. HepG2 cells were seeded to the 6-well plate both inside the barrier circles and outside of them at the density of 107 500 cells/50 μl. Next day 0.4 mg/ml SDS stock was prepared and the cells were exposed to it: HepG2 cells growing on the […]: 400 μl of 0.4 mg/ml SDS solution was pipetted inside the circle, and 400 μl of medium without SDS […] outside of the circle. […] The cell viability was observed microscopically.

[7] = 100 μg/ml dosed into other side of barrier
[8] = 200 μg/ml dosed into other side of barrier

## CN(C)CCC=C1c2ccccc2CCc2ccccc21 [Amitriptyline hydrochloride, 3-(10,11-dihydro-5H-dibenzo[a,d]cycloheptene-5-ylidene)-N,N-dimethylpropan-1-amine]
[1]
  viability at 24 h, 100 μg/ml: 90%
  viability at 24 h, 200 μg/ml: 84%
[1]; 100 μg/ml exposure, across barrier, read-out: reduction in BJ viability
  cytotoxicity at 24 h, 100 μg/ml: 10%
[1]; 200 μg/ml exposure, across barrier, read-out: reduction in BJ viability
  cytotoxicity at 24 h, 200 μg/ml: 16%
[2]; [7]
  Mean absorbance, stdev: 0.911 ± 0.283
[2]; [8]
  Mean absorbance, stdev: 0.844 ± 0.318
[3]
  toxicity to BJ cells across 3D-printed barrier: not toxic
[4]
  IC50: 12 µg/mL

## CCCCCCCCCCCCOS(=O)(=O)[O-].[Na+] [SDS, Sodium Dodecyl Sulfate]
[1]
  viability at 24 h, 100 μg/ml: 106%
  viability at 24 h, 200 μg/ml: 118%
[2]; [7]
  Mean absorbance, stdev: 1.072 ± 0.322
[2]; [8]
  Mean absorbance, stdev: 1.189 ± 0.406
[5]; 24 hours
  cell viability, left side of the barrier (dosed side): all SH-SY5Y cells in the left side of the barrier were dead
  cell viability, right side of the barrier: cells were dead next to the barrier, but not all over the well
[5]; 48 hours
  cell viability, both compartments: all cells were dead in both compartments
[3]
  toxicity to BJ cells across 3D-printed barrier: not toxic
[6]; 24 hours
  cell viability inside the GrowDex circle (dosed side): all HepG2 cells were dead inside the GrowDex circle
  cell viability outside of the circle: also outside of the circle next to the GrowDex barrier
[6]; 48 hours
  HepG2 cells died outside of the circle: about 95%
[4]
  IC50: 47 µg/mL
